For 14 molecules, IC50 and pest or weed control results are on record in US5756423A, “Method of controlling plants by inhibition of farnesyl pyrophosphate synthase” (Zeneca Limited, priority 1997, dated 1998).

As usually defined, the IC50 is the concentration that inhibits the measured activity by half.

Test [1] has as its system farnesyl pyrophosphate synthase in daffodil chromoplasts. Nature of the test: inhibition of farnesyl pyrophosphate synthase in daffodil chromoplasts (14C-isopentenyl pyrophosphate incorporation). The format is biochemical, Narcissus pseudonarcissus. The conditions noted are these: unit inferred, IC50 values in nM, read-out: IC50. Put shortly:
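Daffodil chromoplasts in pH 7.7 sucrose/MgCl2/HEPES buffer with cysteine, NaF and BSA, started with ~3 micromolar 14C-isopentenyl pyrophosphate, 30 min at 30° C. Butanol-extractable radioactivity counted by scintillation; % residual activity calculated against zero-time and end-point no-inhibitor controls.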

Test [2] relates to wild oat (Avena fatua) (AVEFA). As to the kind of experiment: post-emergent herbicidal test, wild oat. The format is in vivo. The conditions noted are these: Avena fatua, post-emergence, read-out: AVEFA percent control; for pest or weed control at 4000 g/ha: 4.0 kg/ha. In a few lines:
(§1)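 Foliar spray, 1 and 4 kg/ha, 0.5% v/v Tween 20 aqueous; grasses 3–4 leaf, broadleaves 1–2 leaf stage, grown 10–12 d. Greenhouse 29/21 °C, 14 h light. Visual % control vs untreated, 17–21 d after treatment.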

The test system of test [3] is barnyard grass (Enchinochloa crusgalli) (ECHCG). As to the kind of experiment: post-emergent herbicidal test, barnyard grass. The format is in vivo. The conditions noted are these: Echinochloa crus-galli, post-emergence, read-out: ECHCG percent control; for pest or weed control at 4000 g/ha: 4.0 kg/ha. In a few lines: as §1
Test [4] concerns green foxtail (Setaria viridis) (SETVI). As to the kind of experiment: post-emergent herbicidal test, green foxtail. In kind it is in vivo. The note with it: Setaria viridis, post-emergence, read-out: SETVI percent control; for pest or weed control at 4000 g/ha: 4.0 kg/ha. Put shortly: as §1
The test system of test [5] is velvetleaf (Abutilon theophrasti) (ABUTH). Nature of the test: post-emergent herbicidal test, velvetleaf. The note with it: Abutilon theophrasti, post-emergence, read-out: ABUTH percent control; for pest or weed control at 4000 g/ha: 4.0 kg/ha. In kind it is in vivo. Put shortly:
as §1

For test [6], the system named is morningglory (Ipomoea spp.) (IPOSS). Nature of the test: post-emergent herbicidal test, morningglory. The format is in vivo. The conditions noted are these: Ipomoea, post-emergence, read-out: IPOSS percent control; for pest or weed control at 4000 g/ha: 4.0 kg/ha. Put shortly:
as §1

The test system of test [7] is wild mustard (Brassica kaber), also known as Sinapis arvensis (SINAR). Nature of the test: post-emergent herbicidal test, wild mustard. The format is in vivo. The note with it: Brassica, post-emergence, read-out: SINAR percent control; for pest or weed control at 4000 g/ha: 4.0 kg/ha. In a few lines: as §1
For test [8], the system named is yellow nutsedge (Cyperus esculentus) (CYPES). As to the kind of experiment: post-emergent herbicidal test, yellow nutsedge. The conditions noted are these: Cyperus, post-emergence, read-out: CYPES percent control; for pest or weed control at 4000 g/ha: 4.0 kg/ha. In kind it is in vivo. In a few lines:
as §1

[9] abbreviates: post-emergent, 17-21 days after application.
[10] abbreviates: post-emergent, 1.0 kg/ha (*), 17-21 days after application.

Like-named read-outs stand apart in the source and are kept apart here. A value given as a limit tells only on which side of the number the result lay.

Consider `Cc1cccnc1NCC(P(=O)(O)O)P(=O)(O)O` [Compound 31], for which the IC50 in test [1] (Table I) and in test [1] (Table II) was 6600 nM in each case. For the same molecule, the pest or weed control at 4000 g/ha in test [2] (setting [9]), in test [3] (setting [9]), in test [4] (setting [9]), in test [5] (setting [9]), in test [6] (setting [9]) and in test [7] (setting [9]) was 0% each time. Moreover, the pest or weed control at 4000 g/ha in test [8] (setting [9]) stood at 0%.

On to `CCCN(C)CC(P(=O)(O)O)P(=O)(O)O` [Compound 32], for which the 50% inhibitory concentration (IC50) in test [1] (Table I) and in test [1] (Table II) was 27 nM each time. The pest or weed control at 1000 g/ha in test [2] (setting [10]) came to 100%; in test [3] (setting [10]) it was 95%; in test [4] (setting [10]), 100%; in test [5] (setting [10]) it was 75%; in test [6] (setting [10]), 85%; in test [7] (setting [10]), 100%. Besides, the pest or weed control at 1000 g/ha in test [8] (setting [10]) came to 25%.

Regarding `CC(C)N(C)CC(P(=O)(O)O)P(=O)(O)O` [Compound 33], the IC50 in test [1] (Table I) and in test [1] (Table II) was 178 nM each time. For the same molecule, the pest or weed control at 1000 g/ha worked out at 100% in test [2] (setting [10]); 100% in test [3] (setting [10]); 95% in test [4] (setting [10]); 50% in test [5] (setting [10]); 65% in test [6] (setting [10]); 100% in test [7] (setting [10]). Also, the pest or weed control at 1000 g/ha in test [8] (setting [10]) is 10%.

As for `C=C(C)CNCC(P(=O)(O)O)P(=O)(O)O` [Compound 34], the IC50 in test [1] (Table I) and in test [1] (Table II) was 31 nM throughout. Further, the pest or weed control at 1000 g/ha came out at 95% in test [2] (setting [10]); 95% in test [3] (setting [10]); 95% in test [4] (setting [10]); 60% in test [5] (setting [10]); 60% in test [6] (setting [10]); 100% in test [7] (setting [10]). For the same molecule, the pest or weed control at 1000 g/ha in test [8] (setting [10]) was 15%.

In the case of `CC1CC(C)CN(CC(P(=O)(O)O)P(=O)(O)O)C1` (stereo not drawn) [Compound 35], the IC50 in test [1] (Table I) and in test [1] (Table II) was 520 nM throughout. Moreover, the pest or weed control at 1000 g/ha in test [2] (setting [10]) stood at 98%; in test [3] (setting [10]), 15%; in test [4] (setting [10]), 50%; in test [5] (setting [10]), 0%; in test [6] (setting [10]), 30%; in test [7] (setting [10]), 25%. In addition, in test [8] (setting [10]), the pest or weed control at 1000 g/ha came to 0%.

Consider `O=P(O)(O)C(CNNc1c(Cl)cc(C(F)(F)F)cc1Cl)P(=O)(O)O` [Compound 36], for which the IC50 in test [1] (Table I) and in test [1] (Table II) was > 500000 nM throughout. In addition, the pest or weed control at 4000 g/ha in test [2] (setting [9]), in test [3] (setting [9]), in test [4] (setting [9]), in test [5] (setting [9]), in test [6] (setting [9]) and in test [7] (setting [9]) was 0% in each case. In addition, the pest or weed control at 4000 g/ha in test [8] (setting [9]) was found to be 0%.

Consider `C=CCN(CC=C)CC(P(=O)(O)O)P(=O)(O)O` [Compound 37], for which the IC50 in test [1] (Table I) and in test [1] (Table II) was 53 nM each time. For the same molecule, the pest or weed control at 1000 g/ha was determined as 95% in test [2] (setting [10]); 95% in test [3] (setting [10]); 100% in test [4] (setting [10]); 10% in test [5] (setting [10]); 15% in test [6] (setting [10]); 98% in test [7] (setting [10]). Moreover, in test [8] (setting [10]), the pest or weed control at 1000 g/ha was 10%.

`CCCN(CC)CC(P(=O)(O)O)P(=O)(O)O` [Compound 38]: the IC50 in test [1] (Table I) and in test [1] (Table II) was 124 nM in each case. Moreover, the pest or weed control at 1000 g/ha in test [2] (setting [10]) came out at 100%; in test [3] (setting [10]) it was 100%; in test [4] (setting [10]), 100%; in test [5] (setting [10]), 70%; in test [6] (setting [10]), 90%; in test [7] (setting [10]) it was 100%. Moreover, the pest or weed control at 1000 g/ha in test [8] (setting [10]) came out at 10%.

As for `O=P(O)(O)C(CNCC(F)(F)F)P(=O)(O)O` [Compound 39], the IC50 in test [1] (Table I) and in test [1] (Table II) was 380 nM in each case. Moreover, the pest or weed control at 1000 g/ha was 20% in test [2] (setting [10]); 0% in test [3] (setting [10]); 5% in test [4] (setting [10]); 0% in test [5] (setting [10]); 0% in test [6] (setting [10]); 0% in test [7] (setting [10]). For the same molecule, in test [8] (setting [10]), the pest or weed control at 1000 g/ha turned out to be 0%.

With `C=CCN(CC)CC(P(=O)(O)O)P(=O)(O)O` [Compound 40], the IC50 in test [1] (Table I) and in test [1] (Table II) was 88 nM throughout. Also, the pest or weed control at 1000 g/ha in test [2] (setting [10]) was determined as 85%; in test [3] (setting [10]), 90%; in test [4] (setting [10]) it was 80%; in test [5] (setting [10]), 10%; in test [6] (setting [10]), 10%; in test [7] (setting [10]) it was 95%. For the same molecule, in test [8] (setting [10]), the pest or weed control at 1000 g/ha was determined as 10%.

Turning to `C=CCN(C)CC(P(=O)(O)O)P(=O)(O)O` [Compound 41], the IC50 in test [1] (Table I) and in test [1] (Table II) was 60 nM in each case. Further, the pest or weed control at 1000 g/ha in test [2] (setting [10]) stood at 100%; in test [3] (setting [10]) it was 95%; in test [4] (setting [10]) it was 95%; in test [5] (setting [10]), 85%; in test [6] (setting [10]), 85%; in test [7] (setting [10]) it was 100%. Further, the pest or weed control at 1000 g/ha in test [8] (setting [10]) was found to be 60%.

`O=P(O)(O)C(CNC1CC1)P(=O)(O)O` [Compound 42]: the IC50 in test [1] (Table I) and in test [1] (Table II) was 27 nM in each case. Besides, the pest or weed control at 1000 g/ha in test [2] is 100%; in test [3], 95%; in test [4], 95%; in test [5], 10%; in test [6] it was 90%; in test [7] it was 100%. Besides, in test [8], the pest or weed control at 1000 g/ha turned out to be 20%.

In the case of `CC1CCCN1CC(P(=O)(O)O)P(=O)(O)O` (stereo not drawn) [Compound 43], the IC50 in test [1] (Table I) and in test [1] (Table II) was 93 nM in each case. In addition, the pest or weed control at 1000 g/ha was 100% in test [2] (setting [10]); 98% in test [3] (setting [10]); 98% in test [4] (setting [10]); 30% in test [5] (setting [10]); 60% in test [6] (setting [10]); 100% in test [7] (setting [10]). Besides, the pest or weed control at 1000 g/ha in test [8] (setting [10]) is 5%.

`CC(NCC(P(=O)(O)O)P(=O)(O)O)c1ccc(F)cc1` (stereo not drawn) [Compound 44]: the IC50 in test [1] (Table I) and in test [1] (Table II) was 2510 nM in each case. In addition, the pest or weed control at 1000 g/ha in test [2] (setting [10]) stood at 90%; in test [3] (setting [10]), 100%; in test [4] (setting [10]), 100%; in test [5] (setting [10]), 60%; in test [6] (setting [10]) it was 10%; in test [7] (setting [10]), 90%. Moreover, the pest or weed control at 1000 g/ha in test [8] (setting [10]) was determined as 60%.
